Among the data in patent publication US20250059185A1 (Hoffmann-La Roche Inc., priority 2021, published 2025) are IC50 values, retold here.

Sequence of MAGL (Q99685 whole entry, species assumed): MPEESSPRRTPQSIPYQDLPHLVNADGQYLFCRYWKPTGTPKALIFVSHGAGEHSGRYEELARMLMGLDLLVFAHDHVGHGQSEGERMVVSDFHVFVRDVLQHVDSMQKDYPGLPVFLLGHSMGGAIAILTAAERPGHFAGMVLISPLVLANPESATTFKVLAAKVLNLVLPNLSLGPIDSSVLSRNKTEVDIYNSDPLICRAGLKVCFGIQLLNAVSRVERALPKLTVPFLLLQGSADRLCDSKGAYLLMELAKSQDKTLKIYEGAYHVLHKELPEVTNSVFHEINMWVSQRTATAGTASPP

The assay addresses MAGL (Homo sapiens (Human), UniProt Q99685). As to the kind of experiment: 2-AG assay (MAGL inhibitory activity, hydrolysis of 2-arachidonoylglycerol followed by mass spectrometry). The class given is biochemical. To be noted: 50 pM MAGL protein, 15 min pre-incubation, 30 min incubation at RT. A digest of the protocol: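 Human MAGL (50 pM final) preincubated 15 min at RT with compound (3-fold dilutions, 12.5 μM to 0.8 pM final) in 50 mM TRIS, 1 mM EDTA, 0.01% Tween-20, 2.5% DMSO. Reaction with […] 2-AG ran 30 min at RT, then was quenched with acetonitrile containing d8-arachidonic acid. Arachidonic acid measured by SPE–triple-quad MS (negative ESI), activity from the arachidonic/d8-arachidonic acid intensity ratio.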
Regarding `CC1c2nn(C)c(-c3cc(F)cc(F)c3)c2CCN1C(=O)c1cc(F)cc(OCC2CNC(=O)C2)c1Cl` (racemic) [Example 40, 4-[[2-Chloro-3-[3-(3,5-difluorophenyl)-2,7-dimethyl-5,7-dihydro-4H-pyrazolo[3,4-c]pyridine-6-carbonyl]-5-fluoro-phenoxy]methyl]pyrrolidin-2-one], the midpoint of inhibition, the IC50, lay at 293 nM.
As for `CC1c2nn(C)c(-c3cc(F)cc(F)c3)c2CCN1C(=O)c1cc(F)cc(OCC2CNC(=O)C2)c1Cl` (single isomer, unassigned) [Example 38, 4-[[2-Chloro-3-[3-(3,5-difluorophenyl)-2,7-dimethyl-5,7-dihydro-4H-pyrazolo[3,4-c]pyridine-6-carbonyl]-5-fluoro-phenoxy]methyl]pyrrolidin-2-one], the figure is 0.5 nM; as for `COCCOc1cc(Cl)cc(-c2c3c(nn2C)[C@@H](C)N(C(=O)c2cccc(OC)c2Cl)CC3)c1` [Example 79, [(7R)-3-[3-chloro-5-(2-methoxyethoxy)phenyl]-2,7-dimethyl-5,7-dihydro-4H-pyrazolo[3,4-c]pyridin-6-yl]-(2-chloro-3-methoxy-phenyl)methanone], 1240 nM; as for `C[C@H]1c2nn(C)c(-c3cc(F)cc(F)c3)c2CCN1C(=O)c1cc(F)cc(OC[C@@H]2CNC(=O)N2)c1Cl` (single isomer, unassigned) [Example 113], 2.48 nM.
In the case of `C[C@@H]1c2nn(C)c(-c3cc(F)cc(F)c3)c2CCN1C(=O)c1ccc(CCC2CNC(=O)C2)cc1Cl` (stereo partly drawn) [Example 48, 4-[2-[3-Chloro-4-[(7R)-3-(3,5-difluorophenyl)-2,7-dimethyl-5,7-dihydro-4H-pyrazolo[3,4-c]pyridine-6-carbonyl]phenyl]ethyl]pyrrolidin-2-one], the IC50 was 1680 nM.
The result for `C[C@@H]1c2nn(C)c(-c3cc(F)cc(F)c3)c2CCN1C(=O)c1ncn(-c2cc(Cl)cnc2O)n1` [Example 101, [1-(5-chloro-2-hydroxy-3-pyridyl)-1,2,4-triazol-3-yl]-[(7R)-3-(3,5-difluorophenyl)-2,7-dimethyl-5,7-dihydro-4H-pyrazolo[3,4-c]pyridin-6-yl]methanone] reads 3020 nM; that for `CC1c2nn(C)c(-c3cc(Cl)cc(C4(NS(C)(=O)=O)CC4)c3)c2CCN1C(=O)c1cc(F)cc(-c2cc[nH]c(=O)c2)c1Cl` (stereo not drawn) [Example 57, N-[1-[3-Chloro-5-[6-[2-chloro-5-fluoro-3-(2-oxo-1H-pyridin-4-yl)benzoyl]-2,7-dimethyl-5,7-dihydro-4H-pyrazolo[3,4-c]pyridin-3-yl]phenyl]cyclopropyl]methanesulfonamide], 115 nM.
`COc1cccc(C(=O)N2CCc3c(nn(C)c3-c3cc(CNS(C)(=O)=O)cc(Cl)n3)C2C)c1Cl` (stereo not drawn) [Example 80, N-[[2-chloro-6-[6-(2-chloro-3-methoxy-benzoyl)-2,7-dimethyl-5,7-dihydro-4H-pyrazolo[3,4-c]pyridin-3-yl]-4-pyridyl]methyl]methanesulfonamide]: the midpoint of inhibition, the IC50, lay at 240 nM.
The result for `C[C@H]1c2nn(C)c(-c3cc(F)cc(F)c3)c2CCN1C(=O)c1ncn(-c2cccnc2O)n1` [Example 32, [(7S)-3-(3,5-Difluorophenyl)-2,7-dimethyl-5,7-dihydro-4H-pyrazolo[3,4-c]pyridin-6-yl]-[1-(2-hydroxy-3-pyridyl)-1,2,4-triazol-3-yl]methanone] reads 232 nM; that for `CC1c2nn(C)c(-c3cc(F)cc(F)c3)c2CCN1C(=O)c1cc(F)cc(N2CC3(C2)CS(=O)(=O)C3)c1Cl` (stereo not drawn) [Example 19, [2-Chloro-3-(2,2-dioxo-2λ^6-thia-6-azaspiro[3.3]heptan-6-yl)-5-fluoro-phenyl]-[3-(3,5-difluorophenyl)-2,7-dimethyl-5,7-dihydro-4H-pyrazolo[3,4-c]pyridine-6-yl]methanone], 41 nM.
The result for `C[C@@H]1c2nn(C)c(-c3cncc(C(F)(F)F)n3)c2CCN1C(=O)c1cc(F)cc(N2CC3(C2)CS(=O)(=O)C3)c1Cl` [Example 66, [2-chloro-3-(2,2-dioxo-2λ^6-thia-6-azaspiro[3.3]heptan-6-yl)-5-fluoro-phenyl]-[(7R)-2,7-dimethyl-3-[6-(trifluoromethyl)pyrazin-2-yl]-5,7-dihydro-4H-pyrazolo[3,4-c]pyridin-6-yl]methanone] reads 3240 nM; that for `C[C@H]1c2nn(C)c(-c3cc(F)cc(F)c3)c2CCN1C(=O)c1cc(F)cc(C2=CC(Cl)C(=O)N=C2)c1Cl` (stereo partly drawn) [Example 98, 3-chloro-5-[2-chloro-3-[(7S)-3-(3,5-difluorophenyl)-2,7-dimethyl-5,7-dihydro-4H-pyrazolo[3,4-c]pyridine-6-carbonyl]-5-fluoro-phenyl]-3H-pyridin-2-one], 5.97 nM; that for `CC1c2nn(C)c(-c3cc(F)cc(F)c3)c2CCN1C(=O)c1ccnc(OCC2CNC(=O)O2)c1Cl` (stereo not drawn) [Example 41, 5-[[3-Chloro-4-[3-(3,5-difluorophenyl)-2,7-dimethyl-5,7-dihydro-4H-pyrazolo[3,4-c]pyridine-6-carbonyl]-2-pyridyl]oxymethyl]oxazolidin-2-one], 53 nM.
As for `C[C@@H]1c2nn(C)c(-c3cc(Cl)cc(S(N)(=O)=O)c3)c2CCN1C(=O)c1ncn(-c2ccc[nH]c2=O)n1` [Example 63, 3-Chloro-5-[(7R)-2,7-dimethyl-6-[1-(2-oxo-1H-pyridin-3-yl)-1,2,4-triazole-3-carbonyl]-5,7-dihydro-4H-pyrazolo[3,4-c]pyridin-3-yl]benzenesulfonamide], the figure is 552 nM; as for `COc1cccc(C(=O)N2CCc3c(nn(C)c3-c3cc(Cl)cc(CS(C)(=O)=O)c3)[C@@H]2C)c1Cl` [Example 6, (2-Chloro-3-methoxy-phenyl)-[(7S)-3-[3-chloro-5-(methylsulfonylmethyl)phenyl]-2,7-dimethyl-5,7-dihydro-4H-pyrazolo[3,4-c]pyridin-6-yl]methanone], 84 nM; as for `COc1cccc(C(=O)N2CCc3c(nn(C)c3-c3cc(F)cc(CC(N)=O)c3)[C@@H]2C)c1Cl` [Example 17, 2-[3-[(7S)-6-(2-Chloro-3-methoxy-benzoyl)-2,7-dimethyl-5,7-dihydro-4H-pyrazolo[3,4-c]pyridin-3-yl]-5-fluoro-phenyl]acetamide], 188 nM.
In turn, `C[C@H]1c2nn(C)c(-c3cc(Cl)cc(C4(NS(C)(=O)=O)CC4)c3)c2CCN1C(=O)c1cc(F)cc(CCc2c[nH]nn2)c1Cl` [Example 88, N-[1-[3-chloro-5-[(7S)-6-[2-chloro-5-fluoro-3-[2-(1H-triazol-4-yl)ethyl]benzoyl]-2,7-dimethyl-5,7-dihydro-4H-pyrazolo[3,4-c]pyridin-3-yl]phenyl]cyclopropyl]methanesulfonamide] showed an IC50 of 1.77 nM.
The result for `C[C@H]1c2nn(C)c(-c3cncc(C(F)(F)F)n3)c2CCN1C(=O)c1cc(F)cc(-c2c[nH]c(C#N)c2)c1Cl` [Example 64, 4-[2-chloro-3-[(7S)-2,7-dimethyl-3-[6-(trifluoromethyl)pyrazin-2-yl]-5,7-dihydro-4H-pyrazolo[3,4-c]pyridine-6-carbonyl]-5-fluoro-phenyl]-1H-pyrrole-2-carbonitrile] reads 13 nM; that for `C[C@H]1c2nn(C)c(-c3cc(Cl)cc(C4(S(C)(=O)=O)CC4)c3)c2CCN1C(=O)c1cc(F)cc(-c2ccc(=O)[nH]c2)c1Cl` [Example 73, 5-[2-chloro-3-[(7S)-3-[3-chloro-5-(1-methylsulfonylcyclopropyl)phenyl]-2,7-dimethyl-5,7-dihydro-4H-pyrazolo[3,4-c]pyridine-6-carbonyl]-5-fluoro-phenyl]-1H-pyridin-2-one], 145 nM; that for `C[C@H]1c2nn(C)c(-c3cc(F)cc(F)c3)c2CCN1C(=O)c1cc(F)cc(-c2c[nH]c(C#N)c2)c1Cl` [Example 36, 4-[2-Chloro-3-[(7S)-3-(3,5-difluorophenyl)-2,7-dimethyl-5,7-dihydro-4H-pyrazolo[3,4-c]pyridine-6-carbonyl]-5-fluoro-phenyl]-1H-pyrrole-2-carbonitrile], 17 nM.
`C[C@H]1c2nn(C)c(-c3cc(F)cc(F)c3)c2CCN1C(=O)c1ccnc(OCC2CNC(=O)O2)c1Cl` (stereo partly drawn) [Example 42, 5-[[3-Chloro-4-[(7S)-3-(3,5-difluorophenyl)-2,7-dimethyl-5,7-dihydro-4H-pyrazolo[3,4-c]pyridine-6-carbonyl]-2-pyridyl]oxymethyl]oxazolidin-2-one] had an IC50 of 26 nM.
As for `C[C@H]1c2nn(C)c(-c3cc(F)cc(F)c3)c2CCN1C(=O)c1cc(F)cc(OCC2CNC(=O)O2)c1Cl` (single isomer, unassigned) [Example 49, 5-[[2-Chloro-3-[3-(3,5-difluorophenyl)-2,7-dimethyl-5,7-dihydro-4H-pyrazolo[3,4-c]pyridine-6-carbonyl]-5-fluoro-phenoxy]methyl]oxazolidin-2-one], the figure is 1 nM; as for `C[C@H]1c2nn(C)c(-c3cc(Cl)cc(C4(C(N)=O)CC4)c3)c2CCN1C(=O)c1cc(F)cc(N2CC3(C2)CS(=O)(=O)C3)c1Cl` [Example 75, 1-[3-chloro-5-[(7S)-6-[2-chloro-3-(2,2-dioxo-2λ^6-thia-6-azaspiro[3.3]heptan-6-yl)-5-fluoro-benzoyl]-2,7-dimethyl-5,7-dihydro-4H-pyrazolo[3,4-c]pyridin-3-yl]phenyl]cyclopropanecarboxamide], 1240 nM.
With `C[C@@H]1c2nn(C)c(-c3cc(Cl)cc(C4(C(N)=O)CC4)c3)c2CCN1C(=O)c1cc(F)cc(N2CC3(C2)CS(=O)(=O)C3)c1Cl` [Example 76, 1-[3-chloro-5-[(7R)-6-[2-chloro-3-(2,2-dioxo-2λ^6-thia-6-azaspiro[3.3]heptan-6-yl)-5-fluoro-benzoyl]-2,7-dimethyl-5,7-dihydro-4H-pyrazolo[3,4-c]pyridin-3-yl]phenyl]cyclopropanecarboxamide], the IC50 worked out at 1420 nM.

Broadly, the IC50 is the point on the concentration scale where inhibition reaches its midpoint. Higher therefore signals weaker potency.
